Where “and” joins values, the source holds several entries; their conditions need not be identical. Equal entries are not always repeated. Inconclusive results and toxic doses are left out. The calls were made as follows: active = survival T/C of 150% or more; inactive = T/C below 125% in these data. Numbered stars: 1 amine (or outer) side, 2 acyl side, 3 side chain; on linkers, the order of the positions; unused ones are H or OH. Square brackets hold non-standard residues; d marks the D form. Peptide text beside a SMILES is read from it. * marks the point of attachment. X6 = CCC(=O)CC1CC(C)CC(C(=O)[*:2])N1[*:1]; X5 = CCCCCCCCC(C)C(=O)*; Aib = CC(C)(N)C(=O)O; X7 = CC(CN(C)CCO)N*
System: BDF1 mice, B16 melanoma ip, median survival T/C
Experiment: NCI In Vivo Anticancer Drug Screen. Data for tumor model B16 Melanoma (intraperitoneal) in B6D2F1 (BDF1) mice
Conditions: endpoint: median survival time, higher = longer survival
How it was run: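 The ratio T/C compares compound-treated mice with vehicle-treated controls, using survival or tumor size as the endpoint in a transplantable tumor model.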

[1] = dose: 100.0 mg/kg/injection, schedule: Q01DX009 (ip), vehicle: saline
[2] = dose: 200.0 mg/kg/injection, schedule: Q01DX009 (ip), vehicle: saline
[3] = dose: 25.0 mg/kg/injection, schedule: Q01DX009 (ip), vehicle: saline
[4] = dose: 50.0 mg/kg/injection, schedule: Q01DX009 (ip), vehicle: saline with Tween-80
[5] = dose: 1.56 mg/kg/injection, schedule: Q01DX009 (ip), vehicle: water
[6] = dose: 3.13 mg/kg/injection, schedule: Q01DX009 (ip), vehicle: water
[7] = dose: 6.25 mg/kg/injection, schedule: Q01DX009 (ip), vehicle: water
[8] = dose: 12.5 mg/kg/injection, schedule: Q01DX009 (ip), vehicle: water
[9] = dose: 25.0 mg/kg/injection, schedule: Q01DX009 (ip), vehicle: water
[10] = dose: 0.75 mg/kg/injection, schedule: Q01DX009 (ip), vehicle: Klucel (hydroxypropylcellulose) (HPC)
[11] = dose: 1.5 mg/kg/injection, schedule: Q01DX009 (ip), vehicle: Klucel (hydroxypropylcellulose) (HPC)
[12] = dose: 3.0 mg/kg/injection, schedule: Q01DX009 (ip), vehicle: Klucel (hydroxypropylcellulose) (HPC)
[13] = dose: 100.0 mg/kg/injection, schedule: Q01DX009 (ip), vehicle: saline with Tween-80
[14] = dose: 100.0 mg/kg/injection, schedule: Q01DX009 (ip), vehicle: Klucel (hydroxypropylcellulose) (HPC)
[15] = dose: 12.5 mg/kg/injection, schedule: Q01DX009 (ip), vehicle: saline
[16] = dose: 200.0 mg/kg/injection, schedule: Q01DX009 (ip), vehicle: Klucel (hydroxypropylcellulose) (HPC)
[17] = dose: 400.0 mg/kg/injection, schedule: Q01DX009 (ip), vehicle: Klucel (hydroxypropylcellulose) (HPC)

Measured: T/C

COc1cc(-c2ccc(N=Nc3cc(S(=O)(=O)O)c4ccccc4c3O)c(OC)c2)ccc1N=Nc1cc(S(=O)(=O)O)c2ccccc2c1O
inactive: [1] 102 % of control | [2] 89 % of control | dose: 400.0 mg/kg/injection, schedule: Q01DX009 (ip), vehicle: saline 93 % of control

CO[C@@H](C=O)O[C@@H](C=O)CO
inactive: dose: 6.25 mg/kg/injection, schedule: Q01DX009 (ip), vehicle: saline with Tween-80 100 % of control | dose: 12.5 mg/kg/injection, schedule: Q01DX009 (ip), vehicle: saline with Tween-80 108 % of control | dose: 12.5 mg/kg/injection, schedule: Q04DX003 (ip), vehicle: saline with Tween-80 96 % of control | dose: 25.0 mg/kg/injection, schedule: Q01DX009 (ip), vehicle: saline with Tween-80 103 % of control | [3] 107 % of control | dose: 25.0 mg/kg/injection, schedule: Q04DX003 (ip), vehicle: saline with Tween-80 108 % of control | [4] 124 % of control | dose: 50.0 mg/kg/injection, schedule: Q01DX009 (ip), vehicle: saline 100 % of control | dose: 50.0 mg/kg/injection, schedule: Q04DX003 (ip), vehicle: saline with Tween-80 102 % of control | dose: 50.0 mg/kg/injection, schedule: Q04DX003 (ip), vehicle: saline 104 % of control | dose: 100.0 mg/kg/injection, schedule: Q04DX003 (ip), vehicle: saline with Tween-80 100 % of control

CC1OC(OCc2ccc(-c3ccccc3)cc2)CC(N)C1O (centres undefined)
inactive: [5] 105 % of control | [6] 95 % of control | [7] 99 % of control | [8] 104 % of control | [9] 87 % of control

CC(=O)Nc1ccc2c(c1)Cc1cc(NC=O)ccc1-2
inactive: [10] 88 % of control | [11] 93 % of control | [12] 90 % of control

CCCCCCCCC(C)C(=O)N1CCCC1C(=O)N1C(CC(=O)CC)CC(C)CC1C(=O)NC(C)C(=O)NC(C)(C)C(=O)NC(C)(C)C(=O)NC(C(=O)NC(C)C(=O)NC(C)(C)C(=O)NC(C)(C)C(=O)NC(C)CN(C)CCO)C(C)CC (centres undefined) (X5-P[X6]A[Aib][Aib]IA[Aib][Aib]-X7; configuration not given here)
inactive: dose: 0.63 mg/kg/injection, schedule: Q01DX009 (ip), vehicle: Klucel (hydroxypropylcellulose) (HPC) 102 % of control | dose: 1.25 mg/kg/injection, schedule: Q01DX009 (ip), vehicle: Klucel (hydroxypropylcellulose) (HPC) 90 % of control | dose: 2.5 mg/kg/injection, schedule: Q01DX009 (ip), vehicle: Klucel (hydroxypropylcellulose) (HPC) 95 % of control

C[C@@H]1O[C@@H](O[C@H]2CC[C@]3(C=O)[C@H]4CC[C@]5(C)[C@@H](c6ccc(=O)oc6)CC[C@]5(O)[C@@H]4CC[C@]3(O)C2)[C@H](O)[C@H](O)[C@H]1O[C@@H]1O[C@H](CO)[C@@H](O)[C@H](O)[C@H]1O
inactive: dose: 0.63 mg/kg/injection, schedule: Q01DX009 (ip), vehicle: saline 102 % of control | dose: 1.25 mg/kg/injection, schedule: Q01DX009 (ip), vehicle: saline 92 % of control | dose: 2.5 mg/kg/injection, schedule: Q01DX009 (ip), vehicle: saline 90 % of control

Cc1cccc(/C=N/OCCC(C)C)n1
inactive: [4] 107 % of control | [13] 95 % of control

CCOC(=O)NC(C)(C)CC(C)(C)C
inactive: [14] 106 % of control

C=CCNC(=S)Nc1cccc(Cl)c1C
inactive: dose: 12.5 mg/kg/injection, schedule: Q04DX003 (ip), vehicle: Klucel (hydroxypropylcellulose) (HPC) 93 % of control | dose: 25.0 mg/kg/injection, schedule: Q04DX003 (ip), vehicle: Klucel (hydroxypropylcellulose) (HPC) 100 % of control | dose: 50.0 mg/kg/injection, schedule: Q04DX003 (ip), vehicle: Klucel (hydroxypropylcellulose) (HPC) 100 % of control

COc1cccc2c1C(=O)c1c(O)c3c(c(O)c1C2=O)CC(O)(C(C)=O)CC3OC1CC([N+](C)(C)C)C(O)C(C)O1 (centres undefined)
inactive: [5] 110 % of control | [6] 107 % of control | [7] 98 % of control | [8] 110 % of control | [9] 106 % of control

C[n+]1ccc(C#N)c2ccccc21
inactive: dose: 3.75 mg/kg/injection, schedule: Q01DX009 (ip), vehicle: saline 102 % of control | dose: 7.5 mg/kg/injection, schedule: Q01DX009 (ip), vehicle: saline 93 % of control

NC(N)=Nc1ccc(C(=O)O)cc1
inactive: dose: 33.0 mg/kg/injection, schedule: Q01DX009 (ip), vehicle: saline with Tween-80 100 % of control | [4] 96 % of control | dose: 75.0 mg/kg/injection, schedule: Q01DX009 (ip), vehicle: saline with Tween-80 96 % of control

O=C(O)c1ccc(O)c([N+](=O)[O-])c1
inactive: [1] 115 % of control | [2] 87 % of control

O=C1C=C2C(=CCOC2O)O1 (centres undefined)
inactive: dose: 0.39 mg/kg/injection, schedule: Q01DX009 (ip), vehicle: Klucel (hydroxypropylcellulose) (HPC) 96 % of control | [10] 106 % of control | [11] 96 % of control | [12] 86 % of control

COc1cc2c(cc1O)N=C[C@@H]1CCC(O)N1C2=O (mixture of isomers)
inactive: dose: 0.5 mg/kg/injection, schedule: Q01DX009 (ip), vehicle: saline 99 % of control | dose: 1.0 mg/kg/injection, schedule: Q01DX009 (ip), vehicle: saline 99 % of control | dose: 2.0 mg/kg/injection, schedule: Q01DX009 (ip), vehicle: saline 98 % of control | dose: 4.0 mg/kg/injection, schedule: Q01DX009 (ip), vehicle: saline 101 % of control and 119 % of control

OCCN1CCN(CCCN2c3ccccc3Oc3ccc(C(F)(F)F)cc32)CC1
inactive: dose: 0.78 mg/kg/injection, schedule: Q01DX009 (ip), vehicle: saline 105 % of control | dose: 1.56 mg/kg/injection, schedule: Q01DX009 (ip), vehicle: saline 100 % of control | dose: 3.12 mg/kg/injection, schedule: Q01DX009 (ip), vehicle: saline 107 % of control | dose: 6.25 mg/kg/injection, schedule: Q01DX009 (ip), vehicle: saline 102 % of control | [15] 87 % of control

NCC(=O)Nc1ccc(O)cc1
inactive: dose: 150.0 mg/kg/injection, schedule: Q01DX009 (ip), vehicle: saline 94 % of control | dose: 300.0 mg/kg/injection, schedule: Q01DX009 (ip), vehicle: saline 105 % of control

O=C(NNCc1ccccc1)C(O)C(O)C(O)CO (centres undefined)
inactive: dose: 25.0 mg/kg/injection, schedule: Q01DX009 (ip), vehicle: Klucel (hydroxypropylcellulose) (HPC) 95 % of control | dose: 50.0 mg/kg/injection, schedule: Q01DX009 (ip), vehicle: Klucel (hydroxypropylcellulose) (HPC) 95 % of control | [14] 92 % of control | [16] 100 % of control | [17] 95 % of control

COc1ccc(OC(=O)Nc2ccccc2OC)cc1
inactive: [14] 100 % of control | [16] 93 % of control | [17] 93 % of control

O=c1cc2oc3c(O)c(O)ccc3c3c4ccccc4c(=O)c(c1)c23
inactive: [15] 103 % of control | [3] 90 % of control

NC(=O)NC1CCCC1
inactive: [13] 106 % of control | dose: 200.0 mg/kg/injection, schedule: Q01DX009 (ip), vehicle: saline with Tween-80 112 % of control | dose: 400.0 mg/kg/injection, schedule: Q01DX009 (ip), vehicle: saline with Tween-80 102 % of control

From PubChem BioAssay AID192 (DTP/NCI, 2004)
